From the Biogen ADME set (Fang et al. 2023)
In brackets after ≈: the same amount, converted by molar mass.

Conditions: for aqueous solubility: pH 6.8

Cc1cc(OCCCS(C)(=O)=O)cc(C)c1-c1cccc(COc2ccc3c(c2)OC[C@@H]3CC(=O)O)c1
MDR1-MDCK efflux ratio: 6.84 | intrinsic clearance, human liver microsomes: 5.67 mL/min/kg | intrinsic clearance, rat liver microsomes: 28.3 mL/min/kg

Cc1cc(N(C)C)nc(-n2cnc(C#N)n2)n1
MDR1-MDCK efflux ratio: 0.595 | intrinsic clearance, human liver microsomes: 33.6 mL/min/kg | intrinsic clearance, rat liver microsomes: 79.2 mL/min/kg | aqueous solubility: 23.3 µg/mL (≈ 101 µM)

Cc1ccc(-n2nc(C(=O)N3CC(O)C3)c3c2CCCC3)cc1
MDR1-MDCK efflux ratio: 5.67 | intrinsic clearance, human liver microsomes: 53.3 mL/min/kg | intrinsic clearance, rat liver microsomes: 182 mL/min/kg | aqueous solubility: 36.5 µg/mL (≈ 117 µM)

COc1ccc(OCC(=O)Nc2cccc(Cl)c2N2CCN(C(C)=O)CC2)cc1
MDR1-MDCK efflux ratio: 1.09 | fraction unbound, human plasma: 0.0502 | intrinsic clearance, human liver microsomes: 181 mL/min/kg | intrinsic clearance, rat liver microsomes: 3350 mL/min/kg | aqueous solubility: 4.7 µg/mL (≈ 11.2 µM)

Cc1ccc(NC(=O)C(C)(C)c2ccccc2)nc1
MDR1-MDCK efflux ratio: 0.556 | intrinsic clearance, human liver microsomes: 16.8 mL/min/kg | intrinsic clearance, rat liver microsomes: 626 mL/min/kg | aqueous solubility: 30.6 µg/mL (≈ 120 µM)

Cc1ccccc1-n1cc[nH]c(=O)c1=O
MDR1-MDCK efflux ratio: 1.26 | intrinsic clearance, human liver microsomes: 5.09 mL/min/kg | intrinsic clearance, rat liver microsomes: ≤ 10.7 mL/min/kg | aqueous solubility: 58.4 µg/mL (≈ 289 µM)

O=C(C1CC1c1ccc(F)cc1)N1CCC(n2c(=O)[nH]c3ccccc32)CC1 (configuration not stated)
intrinsic clearance, human liver microsomes: 14.7 mL/min/kg | intrinsic clearance, rat liver microsomes: 233 mL/min/kg | aqueous solubility: 47.8 µg/mL (≈ 126 µM)

Cc1cc(Cn2cnc(C#N)c2C#N)c2ccccc2n1
MDR1-MDCK efflux ratio: 2.84 | intrinsic clearance, human liver microsomes: ≤ 4.74 mL/min/kg | intrinsic clearance, rat liver microsomes: 36.7 mL/min/kg

O=c1[nH]c2ccccc2n1C1CCN(Cc2csc(COc3ccc(F)cc3)n2)CC1
intrinsic clearance, human liver microsomes: 209 mL/min/kg | intrinsic clearance, rat liver microsomes: 1090 mL/min/kg

NC(=O)Cn1ccc(-c2ccccc2)n1
MDR1-MDCK efflux ratio: 0.792 | intrinsic clearance, human liver microsomes: ≤ 4.74 mL/min/kg | intrinsic clearance, rat liver microsomes: ≤ 10.7 mL/min/kg | aqueous solubility: 40.5 µg/mL (≈ 201 µM)

Cc1csc(NC(=O)CCc2ccncc2)n1
MDR1-MDCK efflux ratio: 0.876 | intrinsic clearance, human liver microsomes: ≤ 4.74 mL/min/kg | intrinsic clearance, rat liver microsomes: 45.3 mL/min/kg | aqueous solubility: 38.1 µg/mL (≈ 154 µM)

CC(C(=O)Nc1ccc(C(N)=O)cc1)N1CCCC(c2nc3ccccc3o2)C1 (configuration not stated)
MDR1-MDCK efflux ratio: 15.1 | intrinsic clearance, human liver microsomes: 183 mL/min/kg | intrinsic clearance, rat liver microsomes: 2180 mL/min/kg | aqueous solubility: 56.5 µg/mL (≈ 144 µM)

CN(C)C(=O)Cn1cc(C(=O)O)ccc1=O
intrinsic clearance, human liver microsomes: ≤ 4.74 mL/min/kg | intrinsic clearance, rat liver microsomes: ≤ 10.7 mL/min/kg | aqueous solubility: 21.1 µg/mL (≈ 93.9 µM)

Cc1nc(-c2ccccc2)c(C(=O)Nc2ccccc2)s1
MDR1-MDCK efflux ratio: 0.571 | aqueous solubility: 0.9 µg/mL (≈ 3.06 µM)

COC(=O)N1CCCN(C(=O)C(=O)Nc2cccc(C(C)C)c2)CC1
MDR1-MDCK efflux ratio: 1.07 | intrinsic clearance, human liver microsomes: 66.2 mL/min/kg | intrinsic clearance, rat liver microsomes: 1220 mL/min/kg | aqueous solubility: 58.4 µg/mL (≈ 168 µM)

Fc1ccc(F)c(CN2CCN(Cc3ccc4c(c3)OCO4)CC2)c1
MDR1-MDCK efflux ratio: 0.645 | intrinsic clearance, human liver microsomes: 105 mL/min/kg | intrinsic clearance, rat liver microsomes: 409 mL/min/kg | aqueous solubility: 26.9 µg/mL (≈ 77.7 µM)

CC(C)n1cnnc1-c1cccc(N2Cc3ccc(Br)cc3C2=O)n1
MDR1-MDCK efflux ratio: 2.6 | intrinsic clearance, human liver microsomes: 6.01 mL/min/kg | intrinsic clearance, rat liver microsomes: 55.5 mL/min/kg

O=C(CC1CCNCC1)NCCc1ccccc1F
MDR1-MDCK efflux ratio: 8.79 | intrinsic clearance, human liver microsomes: ≤ 4.74 mL/min/kg | intrinsic clearance, rat liver microsomes: 21.9 mL/min/kg | aqueous solubility: 58.5 µg/mL (≈ 221 µM)

CC(=O)Nc1ccc(Oc2ncnc3scc(-c4ccccc4)c23)cc1
MDR1-MDCK efflux ratio: 0.804 | intrinsic clearance, human liver microsomes: 39 mL/min/kg | intrinsic clearance, rat liver microsomes: 438 mL/min/kg | aqueous solubility: 8.9 µg/mL (≈ 24.6 µM)

COc1ccc([C@H]2c3[nH]c4ccc(Cl)cc4c3CCN2C(=O)Oc2ccc(Cl)cc2)cc1
MDR1-MDCK efflux ratio: 0.432 | fraction unbound, human plasma: 0.326 | fraction unbound, rat plasma: 0.568 | aqueous solubility: 0.1 µg/mL (≈ 0.214 µM)

CN(CC(=O)Nc1cccc(S(=O)(=O)N2CCCC2)c1)C1CCCCC1
MDR1-MDCK efflux ratio: 2.29 | intrinsic clearance, human liver microsomes: 601 mL/min/kg | intrinsic clearance, rat liver microsomes: 2980 mL/min/kg

CN1CCN(C(=O)c2ccc3cc(CCNc4ncnc5ccc(C#N)cc45)ccc3c2)CC1
intrinsic clearance, human liver microsomes: 81.8 mL/min/kg | intrinsic clearance, rat liver microsomes: 238 mL/min/kg

CC(C)c1nnc(CNC(=O)C2(C)CCC2)n1C
MDR1-MDCK efflux ratio: 45.4 | intrinsic clearance, human liver microsomes: ≤ 4.74 mL/min/kg | intrinsic clearance, rat liver microsomes: ≤ 10.7 mL/min/kg | aqueous solubility: 51.8 µg/mL (≈ 207 µM)

CNc1nc(C2CCNCC2)nc2c1CN(C)CC2
intrinsic clearance, human liver microsomes: 9.51 mL/min/kg | intrinsic clearance, rat liver microsomes: 29.1 mL/min/kg | aqueous solubility: 36.2 µg/mL (≈ 139 µM)

Cc1noc(COc2cccnc2C)n1
MDR1-MDCK efflux ratio: 0.706 | intrinsic clearance, human liver microsomes: ≤ 4.74 mL/min/kg | intrinsic clearance, rat liver microsomes: 23.6 mL/min/kg

CON(C)C(=O)c1cc2ccc(C(C)(C)C)cc2[nH]1
MDR1-MDCK efflux ratio: 0.438 | intrinsic clearance, human liver microsomes: 55 mL/min/kg | intrinsic clearance, rat liver microsomes: 344 mL/min/kg | aqueous solubility: 1.02 µg/mL (≈ 3.92 µM)

CC1(C)CN(C(=O)c2cscn2)CCS1(=O)=O
aqueous solubility: 39.9 µg/mL (≈ 145 µM)

Cc1ccc(S(=O)(=O)Cc2nc(-c3ccc(C(=O)NCc4cccnc4)cc3)oc2C)cc1
MDR1-MDCK efflux ratio: 56.4 | aqueous solubility: 0.33 µg/mL (≈ 0.715 µM)

O=C(c1cc2ccccc2[nH]1)N1C[C@@H](O)[C@H](N2CCOCC2)C1
MDR1-MDCK efflux ratio: 0.428 | intrinsic clearance, human liver microsomes: ≤ 4.74 mL/min/kg | intrinsic clearance, rat liver microsomes: 17.6 mL/min/kg | aqueous solubility: 45.6 µg/mL (≈ 145 µM)

CCOC(=O)Nc1cc(-c2ccc(C)c(NS(C)(=O)=O)c2)nn2c(C)nnc12
MDR1-MDCK efflux ratio: 28.4 | intrinsic clearance, human liver microsomes: 7.01 mL/min/kg | intrinsic clearance, rat liver microsomes: 124 mL/min/kg | aqueous solubility: 51.4 µg/mL (≈ 127 µM)

Clc1ccccc1C(c1ccccc1)(c1ccccc1)n1ccnc1
aqueous solubility: 3.73 µg/mL (≈ 10.8 µM)

Cc1ccccc1N1C(=O)c2ccc(C(=O)NC(C)(C)C)cc2C1=O
aqueous solubility: 49.9 µg/mL (≈ 148 µM)

CN1C(=O)N(CC(=O)NCc2ccc(Cl)cc2)C(=O)C12CCCCC2
MDR1-MDCK efflux ratio: 5.53 | intrinsic clearance, human liver microsomes: 796 mL/min/kg | intrinsic clearance, rat liver microsomes: 2110 mL/min/kg | aqueous solubility: 50.7 µg/mL (≈ 139 µM)

COc1ccccc1-c1nc(C(=O)O)cs1
MDR1-MDCK efflux ratio: 0.649 | intrinsic clearance, human liver microsomes: ≤ 4.74 mL/min/kg | intrinsic clearance, rat liver microsomes: ≤ 10.7 mL/min/kg | aqueous solubility: 54.6 µg/mL (≈ 232 µM)

O=C(NC1CCCCC1)C1=CCN(C(=O)C2CC2)C1
MDR1-MDCK efflux ratio: 2.4 | intrinsic clearance, human liver microsomes: ≤ 4.74 mL/min/kg | intrinsic clearance, rat liver microsomes: 29.8 mL/min/kg

CN1CCN(C(=O)C2(NC(=O)c3cc(Cl)c4c(c3)OCO4)CCCC2)CC1
intrinsic clearance, human liver microsomes: ≤ 4.74 mL/min/kg | intrinsic clearance, rat liver microsomes: 37.7 mL/min/kg | aqueous solubility: 79 µg/mL (≈ 201 µM)

Cc1cc(F)ccc1C(=O)NCc1ccc(O)c(O)c1
intrinsic clearance, human liver microsomes: ≤ 4.74 mL/min/kg | intrinsic clearance, rat liver microsomes: 83.9 mL/min/kg | aqueous solubility: 40.5 µg/mL (≈ 147 µM)

Cc1cc(C)c2[nH]c(C(=O)N3CC[C@@](O)(CC(C)C)[C@@H](Oc4ccc(F)cc4)C3)c(C)c2c1
MDR1-MDCK efflux ratio: 4.89 | intrinsic clearance, human liver microsomes: 140 mL/min/kg | intrinsic clearance, rat liver microsomes: 1910 mL/min/kg

N#C/C(=C\c1ccc(O)c(O)c1)C(=O)NCc1ccccc1
aqueous solubility: 42.5 µg/mL (≈ 145 µM)

CC(C)c1noc(-c2ccc(N)cc2)n1
intrinsic clearance, human liver microsomes: 47.1 mL/min/kg | intrinsic clearance, rat liver microsomes: 158 mL/min/kg

CCc1cc(N2CCOCC2)nc(C2CCN(C(=O)C3CC3)CC2)n1
MDR1-MDCK efflux ratio: 4.76 | intrinsic clearance, human liver microsomes: 11.6 mL/min/kg | intrinsic clearance, rat liver microsomes: 278 mL/min/kg

CC(=O)Nc1cccc(CN2CCCN(C(C)=O)c3ccccc32)c1
MDR1-MDCK efflux ratio: 15.9 | intrinsic clearance, human liver microsomes: 139 mL/min/kg | intrinsic clearance, rat liver microsomes: 919 mL/min/kg | aqueous solubility: 29.6 µg/mL (≈ 87.8 µM)

COc1cccc(CNc2ncc(-c3ccccc3)n2C)c1
MDR1-MDCK efflux ratio: 0.539 | intrinsic clearance, human liver microsomes: 938 mL/min/kg | intrinsic clearance, rat liver microsomes: 2210 mL/min/kg | aqueous solubility: 23.5 µg/mL (≈ 80 µM)

Cc1cccc(OCC(=O)Nc2ccn(C)n2)c1
intrinsic clearance, human liver microsomes: 21.1 mL/min/kg | intrinsic clearance, rat liver microsomes: 479 mL/min/kg | aqueous solubility: 43.5 µg/mL (≈ 177 µM)

COc1ccccc1N1CCN(c2nc(-c3ccc(C)cc3)cc(=O)[nH]2)CC1
MDR1-MDCK efflux ratio: 1.75 | aqueous solubility: 0.2 µg/mL (≈ 0.531 µM)

CCC1(O)CN(c2ncnc3c2c(Br)nn3C)C1
MDR1-MDCK efflux ratio: 0.85 | intrinsic clearance, human liver microsomes: ≤ 4.74 mL/min/kg | intrinsic clearance, rat liver microsomes: 35.2 mL/min/kg | aqueous solubility: 49.1 µg/mL (≈ 157 µM)

O=C(CSc1nnc(-c2cccs2)[nH]1)N1CCCCCC1
MDR1-MDCK efflux ratio: 2.11 | intrinsic clearance, human liver microsomes: 39.4 mL/min/kg | intrinsic clearance, rat liver microsomes: 370 mL/min/kg | aqueous solubility: 27.6 µg/mL (≈ 85.6 µM)

CCc1csc(NC(=O)c2ccc3c(c2)nc(C)n3C)n1
intrinsic clearance, human liver microsomes: 33.9 mL/min/kg | intrinsic clearance, rat liver microsomes: 108 mL/min/kg | aqueous solubility: 39.8 µg/mL (≈ 132 µM)

CN1CCC(=C2c3ccccc3CCc3sccc32)CC1
MDR1-MDCK efflux ratio: 0.862 | intrinsic clearance, human liver microsomes: 15.1 mL/min/kg | intrinsic clearance, rat liver microsomes: 2130 mL/min/kg

CCc1nc(NC(=O)c2ccccc2F)sc1C
MDR1-MDCK efflux ratio: 0.232 | intrinsic clearance, human liver microsomes: 26 mL/min/kg | intrinsic clearance, rat liver microsomes: 146 mL/min/kg | aqueous solubility: 23 µg/mL (≈ 87.1 µM)

CC(C)NC(=O)CN(C#N)c1ccccc1
intrinsic clearance, human liver microsomes: ≤ 4.74 mL/min/kg | intrinsic clearance, rat liver microsomes: ≤ 10.7 mL/min/kg

O=C(c1ccc2c(c1)OCO2)N1CCC(c2n[nH]c(C3CC3)n2)CC1
MDR1-MDCK efflux ratio: 62.7 | intrinsic clearance, human liver microsomes: ≤ 4.74 mL/min/kg | intrinsic clearance, rat liver microsomes: 44.6 mL/min/kg | aqueous solubility: 27 µg/mL (≈ 79.4 µM)

CC(=O)NCC1CCN(C(=O)c2cncn2-c2ccc(F)cc2)CC1
MDR1-MDCK efflux ratio: 59.5 | intrinsic clearance, human liver microsomes: ≤ 4.74 mL/min/kg | intrinsic clearance, rat liver microsomes: 29.3 mL/min/kg | aqueous solubility: 46.3 µg/mL (≈ 134 µM)

COc1ccccc1/C=C/CN1C[C@H]2CCCN2C[C@@H]1C
MDR1-MDCK efflux ratio: 0.741 | intrinsic clearance, human liver microsomes: 16.8 mL/min/kg | intrinsic clearance, rat liver microsomes: 1450 mL/min/kg

Cc1ccc2c(C(=O)N(C)C)cc(-c3cnc(C(C)C)nc3)nc2c1C
MDR1-MDCK efflux ratio: 1.95 | intrinsic clearance, human liver microsomes: 16.7 mL/min/kg | intrinsic clearance, rat liver microsomes: 836 mL/min/kg | aqueous solubility: 2.43 µg/mL (≈ 6.97 µM)

CNC(=O)C1(Cc2ccc(-c3cccnc3)cc2)CCN(Cc2ccc(F)cc2)C1 (configuration not stated)
MDR1-MDCK efflux ratio: 1.53 | fraction unbound, human plasma: 0.105 | fraction unbound, rat plasma: 0.083 | intrinsic clearance, human liver microsomes: 228 mL/min/kg | intrinsic clearance, rat liver microsomes: 756 mL/min/kg

CNC(=O)c1ccccc1Nc1nc(Nc2ccc(N3CCOCC3)cc2OC)ncc1Cl
MDR1-MDCK efflux ratio: 3.06 | intrinsic clearance, human liver microsomes: 14.9 mL/min/kg | intrinsic clearance, rat liver microsomes: 95.1 mL/min/kg | aqueous solubility: 1.95 µg/mL (≈ 4.15 µM)
